Laboratory results reported in PMC12298624, “Anti-Infective Properties, Cytotoxicity, and In Silico ADME Parameters of Novel 4′-(Piperazin-1-yl)benzanilides” (Pharmaceuticals, 2025).
Where two headings read alike, the source gives them in different places.

Columns and labels:
[1] = tested on: M. luteus ATCC 10240; test: MIC/MBC microbroth dilution (EUCAST); format: cell-based, Micrococcus luteus; details: for MBC: read-out: MBC
Description: (§1) Minimum inhibitory concentrations (MIC values) were obtained using the microbroth dilution method as stated in the EUCAST guidelines. Tests were conducted on cation adjusted Mueller–Hinton broth (caMHB) or agar (caMHA). These were prepared and stored following the manufacturer’s guidelines. Biological organisms were prepared via growth on either Luria–Bertani (LB) or cation adjusted Mueller–Hinton agar plates. These were grown for 24 h at 37 °C, except for Micrococcus luteus where MICs took longer to grow and as a consequence were read after 48 h once a clear positive control could be observed. For the MIC experiment, the bacteria were prepared using the McFarland 0.5 standard and diluted 1 in 100 or 1 in 10 in caMHB following EUCAST and CSLI guidelines for the preparation of bacteria. Testing of the compounds using the microbroth dilution method took place in 96-well plates. Serial 2-fold dilutions of compounds in caMHB covering a range from 256 µg/mL to 0.25 µg/mL were prepared. Bacteria preparations (McFarland) were added to the compound dilutions, further halving the compound concentrations. The plate was then incubated for 18 h at 37 °C. Controls for the MIC experiments included a bacterial growth (positive) control of bacteria and caMHB only and a media only (negative) control. After incubation, the plates were read, whereby the positive control of bacteria was visible and the negative control was clear of contamination. The last clear well, where there is no growth of bacteria, was counted as the MIC value. […] The lowest concentration without any bacterial growth was counted as the MBC value. The following pathogens were used: Pseudomonas aeruginosa NCTC 13437, Escherichia coli NCTC 13353, Bacillus subtilis 168a, Serratia marcescens NCTC 9940, Micrococcus luteus ATCC 10240, Staphylococcus aureus JE2 USA 300, Acinetobacter baumannii ATCC 19606, and Klebsiella pneumoniae ATCC 700603. A concentration range of 256 µg/mL to 0.25 µg/mL of a combination of ciprofloxacin and meropenem against E. coli 25922 was used as an antibiotic control to ensure correct dilution and performance of the assay.

[2] = tested on: A. baumannii ATCC 19606; test: MIC/MBC microbroth dilution (EUCAST); format: cell-based, Acinetobacter baumannii; details: Acinetobacter baumannii; for MBC: ATCC19606; for MIC: ATCC19606, read-out: MIC
Description: as §1

[3] = tested on: E. coli NCTC 13353; test: MIC/MBC microbroth dilution (EUCAST); format: cell-based, Escherichia coli; details: Escherichia coli; for MBC: NCTC13353; for MIC: NCTC13353, read-out: MIC
Description: as §1

[4] = Resazurin-based in vitro cytotoxicity with HepG2 cells; format: cell-based, human; details: HepG2 cells; human hepatocarcinoma cells, 48 h
Description: The HepG2 cells were washed with DPBS (Dulbecco’s PBS without calcium and magnesium, Gibco, Cat #21600-044) and trypsinized with trypsin solution in DPBS. Trypsinization was stopped by adding culture medium, and after being stained with Trypan Blue (SORS Ukraine) cells were counted using a counting chamber (Hausser Scientific, Cat #3500). The cell suspension was placed in a falcon tube containing plating medium DMEM/High glucose with 1% fetal bovine serum, 100 units/mL penicillin, and 100 µg/mL streptomycin. Cells at a density of 250,000 cells/mL were seeded in sterile 384-well plates (Greiner Bio-One, Cat #781091) in a volume of […] and incubated at 37 °C and 5% CO2. Serial dilutions of ten 3-fold dilution steps of test and reference compounds covering a range from 100.0 to 0.005 µM were added to the wells, followed by incubation at 37 °C and 5% CO2 for 48 h. Then, resazurin (50 µM final concentration) was added and plates were incubated for another 3 h. The plates were read with a SpectraMax microplate reader (Molecular Devices Cooperation, Sunnyvale, CA, USA)) using an extinction wavelength of 555 nm and an emission wavelength of 570 nm. IC50 values were calculated using GraphPad Prism 9.0 charting software. Doxorubicin (Sigma Aldrich D1515) was used as control.

[5] = tested on: B. subtilis 168a; test: MIC/MBC microbroth dilution (EUCAST); format: cell-based, Bacillus subtilis; details: Bacillus subtilis, 168A; for MIC: read-out: MIC
Description: as §1

[6] = Resazurin-based in vitro cytotoxicity with L-6 cells; format: cell-based, rat; details: rat
Description: Serial drug dilutions of eleven 3-fold dilution steps covering a range from 100 to 0.002 µg/mL were prepared. After 70 h of incubation, the plates were inspected under an inverted microscope to assure growth of the controls and sterile conditions. […] The plates were read with a Spectramax Gemini XS microplate fluorometer (Molecular Devices Cooperation, Sunnyvale, CA, USA) using an excitation wavelength of 536 nm and an emission wavelength of 588 nm. IC50 values were calculated by linear regression from the sigmoidal dose–inhibition curves using SoftmaxPro software Version 8.2.1 (Molecular Devices Cooperation, Sunnyvale, CA, USA). Podophyllotoxin (Sigma P4405) was used as control.

[7] = tested on: P. falciparum NF54; test: In vitro microplate assay against P. falciparum NF54 (3H-hypoxanthine incorporation); format: cell-based, Plasmodium falciparum; details: Plasmodium falciparum, NF54, chloroquine-sensitive strain NF54, erythrocytic stages; read-out: P.f.NF54 IC50
Description: Serial drug dilutions of eleven 3-fold dilution steps covering a range from 100 to 0.002 µg/mL were prepared. […] After 48 h of incubation time, 0.05 mL of ^3H-hypoxanthine (=0.5 µCi) was added to each well of the plate. The plates were incubated for a further 24 h under the same conditions. Plates were then harvested using a BetaplateTM cell harvester (Wallac, Zurich, Switzerland). Red blood cells were transferred onto a glass fiber filter and then washed with distilled aqua demin. The dried filters were inserted into a plastic foil with 10 mL of scintillation fluid and counted in a BetaplateTM liquid scintillation counter (Wallac, Zurich, Switzerland). IC50 values were calculated from sigmoidal inhibition curves by linear regression using Microsoft Excel. […] Louis, MO, USA) was used as control.

[8] = tested on: S. aureus JE2 USA 300; test: MIC/MBC microbroth dilution (EUCAST); format: cell-based; details: Staphylococcus aureus, USA300, S. aureus JE2 USA 300
Description: as §1

[9] = tested on: P. aeruginosa NCTC 13437; test: MIC/MBC microbroth dilution (EUCAST); format: cell-based; details: Pseudomonas aeruginosa, NCTC13437
Description: as §1

[10] = tested on: K. pneumoniae ATCC 700603; test: MIC/MBC microbroth dilution (EUCAST); format: cell-based; details: Klebsiella pneumoniae, ATCC700603
Description: as §1

[11] = tested on: S. marcescens NCTC 9940; test: MIC/MBC microbroth dilution (EUCAST); format: cell-based; details: Serratia marcescens, NCTC9940
Description: as §1

[12] = Parallel artificial membrane permeability assay (PAMPA); details: PAMPA, PBS pH 7.4, 200 µM, 5 h, room temperature; for Papp at 5 h, 200 µM: pH 7.4, Pe
Description: With the high-throughput PAMPA the newly synthesized compounds were tested for their passive permeability through cell membranes without the influence of efflux pumps or transporter proteins. The assay was performed using a Corning® Gentest^TM Precoated PAMPA Plate System (Corning, Glendale, AZ, USA) with 96-well polystyrene plates. The bottom of the acceptor plate consists of a porous membrane, whereby the pores are lined with a lipid–oil–lipid triple layer. Stock solutions of each test compound at 10 mM were prepared in DMSO or methanol and diluted with phosphate-buffered saline (PBS at a pH of 7.4) to a final concentration of 200 µM. […] The donor plate (bottom plate) was filled with the compound solutions, whereby all compounds were tested in quadruplicates. Each well of the acceptor plate (top plate) was filled with PBS buffer. Donor and acceptor plates were combined and incubated at room temperature for 5 h. After that, the plates were separated and 150 µL of each well of both plates were transferred to 96-well UV plates (Greiner Bio-One). Absorption at different wavelengths covering a range from 200 to 300 nm was measured using a SpectraMax M3 UV plate reader. […] The plates were analyzed at the wavelength where the R2 value of the calibration curve was higher than 0.99 [47].
Recovery of compounds from donor and acceptor wells (mass retention) was calculated as shown in the equation below. Data were only accepted when recovery exceeded 70%. The equation is as follows:(3) R=1−[cDt×VD+cAt×VA]/(c0×VD) where

[13] = tested on: P. falciparum NF54; set-up: method as in PMID 34832891, PMID 36558954; details: Figure 1, earlier studies; ref [12],[13]; read-out: PfNF54 IC50; cited from earlier work
[14] = Micrococcus luteus, ATCC10240, M. luteus ATCC 10240
[15] = Micrococcus luteus, ATCC10240, M. luteus ATCC 10240, read-out: MIC

SMILES	MBC [1, 14]	MIC [1, 15]	MBC [2]	MIC [2]	MBC [3]	MIC [3]	IC50 at 48 h [4]	MBC [5]	MIC [5]	IC50 at 70 h [6]	IC50 [7]	MBC [8]	MIC [8]	MBC [9]	MIC [9]	MBC [10]	MIC [10]	MBC [11]	MIC [11]	Papp at 5 h, 200 µM [12]	further results
O=C(Nc1ccc(N2CCNCC2)cc1)c1cccc(C(F)(F)F)c1Sc1ccc(F)cc1 [Compound 62, 2-[(4-Fluorophenyl)sulfanyl]-N-[4-(piperazin-1-yl)phenyl]-3-(trifluoromethyl)benz-amide]	128 µg/mL	128 µg/mL	> 256 µg/mL	256 µg/mL	> 256 µg/mL	> 256 µg/mL	9.3 µM	256 µg/mL	128 µg/mL	13.1 µM	1.66 µM	128 µg/mL	128 µg/mL	> 256 µg/mL	> 256 µg/mL	256 µg/mL	256 µg/mL	> 256 µg/mL	> 256 µg/mL	6.51 ×10⁻⁶ cm/s	Pe [12]: 4.41 10^−6 cm/s
O=C(Nc1ccc(N2CCNCC2)cc1)c1ccccc1Oc1ccccc1 [Compound 64, 2-Phenoxy-N-[4-(piperazin-1-yl)phenyl]benzamide]		16 to 64 µg/mL	> 256 µg/mL	256 µg/mL	> 256 µg/mL	> 256 µg/mL	12.3 µM	256 µg/mL	128 µg/mL	40.6 µM	2.33 µM	64 µg/mL	32 µg/mL	> 256 µg/mL	> 256 µg/mL	> 256 µg/mL	256 µg/mL	> 256 µg/mL	> 256 µg/mL	7.67 ×10⁻⁶ cm/s	MIC ([1]; M. luteus ATCC 10240): 32 µg/mL
Nc1cccc(C(=O)Nc2ccc(N3CCNCC3)cc2)c1Oc1ccc(F)cc1 [Compound 65, 3-Amino-2-(4-fluorophenoxy)-N-[4-(piperazin-1-yl)phenyl]benzamide]	> 256 µg/mL	> 256 µg/mL	> 256 µg/mL	> 256 µg/mL	> 256 µg/mL	> 256 µg/mL	> 100 µM	> 256 µg/mL	> 256 µg/mL	157 µM	7 µM	256 µg/mL	256 µg/mL	> 256 µg/mL	> 256 µg/mL	> 256 µg/mL	> 256 µg/mL	> 256 µg/mL	> 256 µg/mL	5.76 ×10⁻⁶ cm/s	
CC(C)(C)OC(=O)N1CCN(c2ccccc2NC(=O)c2cccc(C(F)(F)F)c2Oc2ccc(F)cc2)CC1 [MMV030666, tert-Butyl-4-{2-[2-(4-fluorophenoxy)-3-(trifluoromethyl)benzamido]phenyl}pipera-zine-1-carboxylate]																					IC50 [13]: 0.41 µM
